According to patent US12240862B2, “Inhibitors of peptidylarginine deiminases” (Gilead Sciences, Inc., priority 2020, dated 2025):

molecular target: T1, human PAD4 (Homo sapiens, UniProt Q9UM07); test: In vitro PAD4 BAEE biochemical assay; details: human PAD4, BAEE substrate; 5 nM PAD4, 2 mM calcium chloride, 3 mM BAEE; geometric mean of multiple experiments
T1 construct: human PAD4 (NM_012387), A2P663, was PCR amplified; His-SUMO (N, cleaved yes); made in house; host or cells: E. coli BL21(DE3)
T1 sequence (Q9UM07 2-663): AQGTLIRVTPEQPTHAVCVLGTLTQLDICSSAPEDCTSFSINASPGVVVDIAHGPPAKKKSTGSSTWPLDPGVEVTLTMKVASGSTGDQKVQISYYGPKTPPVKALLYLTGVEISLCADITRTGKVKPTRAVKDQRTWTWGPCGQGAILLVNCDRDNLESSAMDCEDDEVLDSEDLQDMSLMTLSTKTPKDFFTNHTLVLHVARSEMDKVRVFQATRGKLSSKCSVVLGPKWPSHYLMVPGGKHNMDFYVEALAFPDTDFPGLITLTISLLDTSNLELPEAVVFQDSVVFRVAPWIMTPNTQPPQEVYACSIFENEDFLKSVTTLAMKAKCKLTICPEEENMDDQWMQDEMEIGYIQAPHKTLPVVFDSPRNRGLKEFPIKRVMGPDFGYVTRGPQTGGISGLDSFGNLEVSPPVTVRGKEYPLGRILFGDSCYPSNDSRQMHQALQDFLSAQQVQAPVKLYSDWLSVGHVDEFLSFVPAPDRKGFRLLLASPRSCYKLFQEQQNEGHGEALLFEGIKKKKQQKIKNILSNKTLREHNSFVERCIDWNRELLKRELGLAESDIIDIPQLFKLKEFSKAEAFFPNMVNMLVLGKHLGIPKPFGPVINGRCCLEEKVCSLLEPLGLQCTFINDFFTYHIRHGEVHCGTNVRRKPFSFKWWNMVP
How it was run: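 Ammonia generated from BAEE serves as the readout, measured by o-phthalaldehyde after EDTA termination. Final conditions: 5 nM human PAD4 (SUMO tag cleaved), 2 mM CaCl2, 3 mM BAEE, pH 7.6 MOPS buffer, 25 °C for 2 h following a 30-min compound preincubation.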

`COc1cc(C(=O)N2[C@H]3CC[C@@H]2[C@H](N)C3)cc2nc(-c3cc4ccc([C@@H](C)NC(=O)NC(C)(C)C(F)(F)F)nc4n3CC3CC3)c(C)n12` [Example 213, 1-[(1~{R})-1-[2-[7-[(1~{R},2~{R},4~{S})-2-amino-7-azabicyclo[2.2.1]heptane-7-carbonyl]-5-methoxy-3-methylimidazo [1,2-a]pyridin-2-yl]-1-(cyclopropylmethyl)pyrrolo [2,3-b]pyridin-6-yl]ethyl]-3-(1,1,1-trifluoro-2-methylpropan-2-yl)urea] and `COc1cc(C(=O)N2[C@H]3CC[C@@H]2[C@H](N)C3)cc2nc(-c3cc4ccc([C@@H](C)NC(=O)NC5CCOC5)nc4n3CC3CC3)c(C)n12` (some centres unmarked) [Example 231, 1-[(1~{R})-1-[2-[7-[(1~{R},2~{R},4~{S})-2-amino-7-azabicyclo[2.2.1]heptane-7-carbonyl]-5-methoxy-3-methylimidazo [1,2-a]pyridin-2-yl]-1-(cyclopropylmethyl)pyrrolo [2,3-b]pyridin-6-yl]ethyl]-3-(oxolan-3-yl)urea] are within 1.5-fold of each other in IC50: 46.9 nM for the first, 64.2 nM for the second.

`Cc1c(-c2cc3ccc(N(C(F)F)S(C)(=O)=O)nc3n2CC2CC2)nc2cc(C(=O)N3C[C@H](N)CC[C@@H]3C)ccn12` [Example 402, ~{N}-[2-[7-[(2~{S},5~{R})-5-amino-2-methylpiperidine-1-carbonyl]-3-methylimidazo[1,2-a]pyridin-2-yl]-1-(cyclopropylmethyl)pyrrolo [2,3-b]pyridin-6-yl]-~{N}-(difluoromethyl) methanesulfonamide] and `COc1cc(C(=O)N2CCC[C@@H](N)[C@H]2C)cc2nc(-c3cc4ccc(N(C(F)F)S(C)(=O)=O)nc4n3CC3CC3)c(C)n12` [Example 411, ~{N}-[2-[7-[(2~{R},3~{R})-3-amino-2-methylpiperidine-1-carbonyl]-5-methoxy-3-methylimidazo[1,2-a]pyridin-2-yl]-1-(cyclopropylmethyl)pyrrolo [2,3-b]pyridin-6-yl]-~{N}-(difluoromethyl) methanesulfonamide] are within 1.5-fold of each other in IC50: 203 nM for the first, 143 nM for the second.

First: COc1cc(C(=O)N2[C@H]3CC[C@@H]2[C@H](N)C3)cc2nc(-c3cc4ccc(N5c6ccccc6CS5(=O)=O)nc4n3CC3CC3)c(C)n12 [Example 467, [(1~{R},2~{R},4~{S})-2-amino-7-azabicyclo [2.2.1]heptan-7-yl]-[2-[1-(cyclopropylmethyl)-6-(2,2-dioxo-3~{H}-2,1-benzothiazol-1-yl)pyrrolo [2,3-b]pyridin-2-yl]-5-methoxy-3-methylimidazo [1,2-a]pyridin-7-yl] methanone]
Second: COc1cc(C(=O)N2[C@H]3CC[C@@H]2[C@H](N)C3)cc2nc(-c3cc4ccc(C(C)CN5CCOCC5)nc4n3CC3CC3)c(C)n12 (some centres unmarked) [Example 543, [(1~{R},2~{R},4~{S})-2-amino-7-azabicyclo [2.2.1]heptan-7-yl]-[2-[1-(cyclopropylmethyl)-6-(1-morpholin-4-ylpropan-2-yl)pyrrolo[2,3-b]pyridin-2-yl]-5-methoxy-3-methylimidazo [1,2-a]pyridin-7-yl] methanone]
The IC50 of the first is 3.3-fold higher: 361 nM for the first, 108 nM for the second. The second is the more potent here.

First: COc1cc(C(=O)N2CCC3(CCCCN3)C2)cc2nc(-c3cc4ccc([C@@H](C)NC(=O)C56CC(F)(C5)C6)nc4n3CC3CC3)c(C)n12 (some centres unmarked) [Example 4, ~{N}-[(1~{R})-1-[1-(cyclopropylmethyl)-2-[7-(2,6-diazaspiro [4.5]decane-2-carbonyl)-5-methoxy-3-methylimidazo[1,2-a]pyridin-2-yl]pyrrolo[2,3-b]pyridin-6-yl]ethyl]-3-fluorobicyclo[1.1.1] pentane-1-carboxamide]
Second: COc1cc(C(=O)N2[C@H]3CC[C@@H]2[C@H](N)C3)cc2nc(-c3cc4ccc([C@@H](C)NC(=O)C5CC6(CCC6)C5)nc4n3CC3CC3)c(C)n12 [Example 43, ~{N}-[(1~{R})-1-[2-[7-[(1~{R},2~{R},4~{S})-2-amino-7-azabicyclo[2.2.1]heptane-7-carbonyl]-5-methoxy-3-methylimidazo [1,2-a]pyridin-2-yl]-1-(cyclopropylmethyl)pyrrolo[2,3-b]pyridin-6-yl]ethyl]spiro[3.3]heptane-2-carboxamide]
The IC50 of the first is 470-fold higher: 23400 nM for the first, 49.6 nM for the second.

`COc1cc(C(=O)N[C@H]2CNCC[C@H]2C)cc2nc(-c3cc4ccc(N(C(F)F)S(C)(=O)=O)nc4n3CC3CC3)c(C)n12` [Example 313, 2-[1-(cyclopropylmethyl)-6-[difluoromethyl (methylsulfonyl)amino]pyrrolo[2,3-b]pyridin-2-yl]-5-methoxy-3-methyl-~{N}-[(3~{R},4~{R})-4-methylpiperidin-3-yl]imidazo[1,2-a] pyridine-7-carboxamide] and `COc1cc(C(=O)N[C@@H]2CNCC[C@H]2C)cc2nc(-c3cc4ccc(N(C(F)F)S(C)(=O)=O)nc4n3CC3CC3)c(C)n12` [Example 281, 2-[1-(cyclopropylmethyl)-6-[difluoromethyl (methylsulfonyl)amino]pyrrolo[2,3-b]pyridin-2-yl]-5-methoxy-3-methyl-~{N}-[(3~{S},4~{R})-4-methylpiperidin-3-yl] imidazo[1,2-a]pyridine-7-carboxamide] are within 1.5-fold of each other in IC50: 24200 nM for the first, 16200 nM for the second.

`CNc1cc(C(=O)N2CCC[C@@H](N)C2)cc2nc(-c3cc4ccc(N(C(F)F)S(C)(=O)=O)nc4n3CC3CC3)c(C)n12` [Example 421, ~{N}-[2-[7-[(3~{R})-3-aminopiperidine-1-carbonyl]-3-methyl-5-(methylamino)imidazo[1,2-a]pyridin-2-yl]-1-(cyclopropylmethyl)pyrrolo [2,3-b]pyridin-6-yl]-~{N}-(difluoromethyl) methanesulfonamide] and `COc1cc(C(=O)N2C[C@H]3CC(F)[C@@H]2[C@@H]3N)cc2nc(-c3cc4ccc(N(C(F)F)S(C)(=O)=O)nc4n3CC3CC3)c(C)n12` (stereo partly drawn) [Example 361, N-[2-[7-[(1S,4R,7R)-7-amino-6-fluoro-2-azabicyclo[2.2.1]heptane-2-carbonyl]-5-methoxy-3-methyl-imidazo[1,2-a]pyridin-2-yl]-1-(cyclopropylmethyl)pyrrolo [2,3-b]pyridin-6-yl]-N-(difluoromethyl) methanesulfonamide] are within 1.5-fold of each other in IC50: 341 nM for the first, 258 nM for the second.

First: COc1cc(C(=O)N2[C@H]3CC[C@@H]2[C@H](N)C3)cc2nc(-c3cc4ccc([C@@H](C)NC(=O)C5CC6(CC6)C5)nc4n3CC3CC3)c(C)n12 [Example 55, ~{N}-[(1~{R})-1-[2-[7-[(1~{R},2~{R},4~{S})-2-amino-7-azabicyclo [2.2.1]heptane-7-carbonyl]-5-methoxy-3-methylimidazo [1,2-a]pyridin-2-yl]-1-(cyclopropylmethyl)pyrrolo[2,3-b]pyridin-6-yl]ethyl] spiro[2.3]hexane-5-carboxamide]
Second: COc1cc(C(=O)N2[C@H]3CC[C@@H]2[C@H](N)C3)cc2nc(-c3cc4ccc([C@@H](C)NC(=O)c5cc(C)nc(Cl)c5)nc4n3CC3CC3)c(C)n12 [Example 46, ~{N}-[(1~{R})-1-[2-[7-[(1~{R},2~{R},4~{S})-2-amino-7-azabicyclo[2.2.1]heptane-7-carbonyl]-5-methoxy-3-methylimidazo [1,2-a]pyridin-2-yl]-1-(cyclopropylmethyl)pyrrolo[2,3-b]pyridin-6-yl]ethyl]-2-chloro-6-methylpyridine-4-carboxamide]
The IC50 of the first is 1.6-fold higher: 52.6 nM for the first, 33.4 nM for the second. The second is the more potent here.

Compared with `CCc1ccc2cc(-c3nc4cc(C(=O)N5CCC[C@@H](N)C5)cc(OC)n4c3C3CC3)n(CC3CC3)c2n1` [Example 585, [(3~{R})-3-aminopiperidin-1-yl]-[3-cyclopropyl-2-[1-(cyclopropylmethyl)-6-ethylpyrrolo[2,3-b]pyridin-2-yl]-5-methoxyimidazo [1,2-a]pyridin-7-yl]methanone], `COc1cc(C(=O)N2CCC[C@@H](N)C2)cc2nc(-c3cc4ccc(C(C)C)nc4n3CC3CC3)c(C)n12` [Example 608, [(3~{R})-3-aminopiperidin-1-yl]-[2-[1-(cyclopropylmethyl)-6-propan-2-ylpyrrolo [2,3-b]pyridin-2-yl]-5-methoxy-3-methylimidazo [1,2-a]pyridin-7-yl] methanone] is 3.1-fold higher in IC50: 174 nM for the first, 544 nM for the second. The first is the more potent here.

`CCc1ccc2cc(-c3nc4cc(C(=O)N5[C@H]6CC[C@@H]5[C@H](N)C6)cc(OC)n4c3C)n(Cc3cccnc3)c2n1` [Example 513, [(1~{R},2~{R},4~{S})-2-amino-7-azabicyclo [2.2.1]heptan-7-yl]-[2-[6-ethyl-1-(pyridin-3-ylmethyl)pyrrolo [2,3-b]pyridin-2-yl]-5-methoxy-3-methylimidazo[1,2-a]pyridin-7-yl]methanone] and `CCc1ccc2cc(-c3nc4cc(C(=O)N5[C@H]6CC[C@@H]5[C@H](N)C6)cc(OC)n4c3C)n(Cc3ccncc3)c2n1` [Example 507, [(1~{R},2~{R},4~{S})-2-amino-7-azabicyclo [2.2.1]heptan-7-yl]-[2-[6-ethyl-1-(pyridin-4-ylmethyl)pyrrolo[2,3-b]pyridin-2-yl]-5-methoxy-3-methylimidazo[1,2-a]pyridin-7-yl]methanone] are within 1.5-fold of each other in IC50: 179 nM for the first, 152 nM for the second.

First: COc1cc(C(=O)N2CCC[C@@H](N)C2)cc2nc(-c3cc4ccc(OCC(=O)N(C)C)nc4n3CC3CC3)c(C)n12 [Example 620, 2-[2-[7-[(3~{R})-3-aminopiperidine-1-carbonyl]-5-methoxy-3-methylimidazo[1,2-a]pyridin-2-yl]-1-(cyclopropylmethyl)pyrrolo[2,3-b]pyridin-6-yl] oxy-~{N},~{N}-dimethylacetamide]
Second: COc1cc(C(=O)N2CCC[C@@H](N)C2)cc2nc(-c3cc4ccc(-c5ccc(N)nc5C)nc4n3CC3CC3)c(C)n12 [Example 605, [2-[6-(6-amino-2-methylpyridin-3-yl)-1-(cyclopropylmethyl)pyrrolo[2,3-b]pyridin-2-yl]-5-methoxy-3-methylimidazo[1,2-a]pyridin-7-yl]-[(3~{R})-3-aminopiperidin-1-yl]methanone]
The IC50 of the first is 2.3-fold higher: 1190 nM for the first, 518 nM for the second.
